Data from EP0671410A1, “Antiviral compounds” (priority 1989, dated 1991).

Legend:
[1] = tested on: Influenza A and B strains; design: species or system Mice; settings: in vivo
[2] = tested on: Influenza A and B strains; test: microbe, parasite or virus in culture; format: cell-based; settings: in Gallus gallus, read-out: Anti-influenza Activity CE cells IC50,µM
[3] = tested on: Respiratory Syncytial Virus (RSV); test: microbe, parasite or virus in culture; format: cell-based; settings: human respiratory syncytial virus, BSC-1; BS-C-1 cells (African Green Monkey kidney cells); plaque/foci reduction; read-out: Anti-respiratory syncytial virus BS-C-1 cells IC₅₀

| SMILES | Anti-influenza Activity Mouse log10 reduction in virus titre. (Average of 5 Mice) [1] | IC50 [2] [µM] | IC50 [3] [µM] |
| --- | --- | --- | --- |
| COc1nc(N)nc2c1ncn2[C@@H]1O[C@H](CO)[C@@H](O)[C@H]1F [Example 12, 2-Amino-9-(2-deoxy-2-fluoro-β-D-ribofuranosyl)-6-methoxy-9H-purine] | +(1.9) log10 | 0.4 | 6.3 |
| Nc1ncnc2c1ncn2[C@@H]1O[C@H](CO)[C@@H](O)[C@H]1F [Example 8, 9-(2-Deoxy-2-fluoro-β-D-ribofuranosyl)adenine] | +(2.3) log10 | 4 |  |
| Nc1nc2c(ncn2[C@@H]2O[C@H](CO)[C@@H](O)[C@H]2F)c(=O)[nH]1 [Example 7, 9-(2-Deoxy-2-fluoro-β-D-ribofuranosyl)guanine] | +(2.4) log10 | 0.8 to 2 | 26.2 |
| Nc1nc(N)c2ncn([C@@H]3O[C@H](CO)[C@@H](O)[C@H]3F)c2n1 [Example 6, 2,6-Diamino-9-(2-deoxy-2-fluoro-β-D-ribofuranosyl)-9H-purine] | +(2.1) log10 | 0.6 |  |
| Nc1ncc2ncn([C@@H]3O[C@H](CO)[C@@H](O)[C@H]3F)c2n1 [Example 9, 2-Amino-9-(2-deoxy-2-fluoro-β-D-ribofuranosyl)-9H-purine] | +(1.6) log10 |  |  |
